Source: patent US10280198B2, “Therapeutic agents for reducing parathyroid hormone levels” (KAI PHARMACEUTICALS, INC., priority 2009, dated 2019)
Like-named read-outs stand apart in the source and are kept apart here. Square brackets hold non-standard residues; d marks the D form. Peptide text beside a SMILES is read from it. dNle = CCCC[C@@H](N)C(=O)O

Experiments:
[1] = test system: rat peritoneal mast cells; experiment: In vitro histamine induction in rat peritoneal mast cells; format: cell-based
Experimental: To further evaluate the relationship between compound structure and histamine release, a series of compounds was prepared and assessed for their ability to trigger induction of histamine in an in vitro assay using rat peritoneal mast cells. In this assay, compounds are incubated at 10 μM for 15 minutes at 37° C. with cells isolated from peritoneal lavage of SD rats. Following incubation, cell medium is collected and histamine is determined.
Accordingly, and as can be appreciated in view of the PTH data and the histamine data described hereinabove, in one embodiment, a compound that has activity to decrease PTH level in a subject in the absence of a histamine response is contemplated. In certain embodiments, absence of a histamine response intends a dose of the compound that produces a less than 10-fold, more preferably 8-fold, still more preferably 5-fold, and even still more preferably 3-fold, increase in histamine, measured in vitro in an assay as described herein, where the fold change is determined based on histamine levels before incubation with the compound and after 15 minutes incubation with compound. In a specific embodiment, the histamine response is determined in an in vitro assay using rat peritoneal mast cells isolated from peritoneal lavage of normal Sprague Dawley rats, and where the fold change is determined based on histamine levels before incubation with the compound and after 15 minutes incubation with compound. In the studies conducted herein, the in vitro evaluation of histamine release was performed using isolated rat peritoneal mast cells isolated by peritoneal lavage using cold HBSS+25 mM HEPES pH 7.4 containing heparin (5 u/mL). Cells were washed twice in stimulation buffer (HBSS+25 mM HEPES pH 7.4) and incubated with 10 μM of compound in stimulation buffer (HBSS+25 mM HEPES pH 7.4) for 15 minutes in a 96-well plate ([…]) at 37° C. Cell supernatant was analyzed for histamine using histamine EIA kit (Cayman #589651).
For in vitro evaluation of histamine release, isolated rat peritoneal mast cells were isolated by performing peritoneal lavage using cold HBSS+25 mM HEPES pH 7.4 containing heparin (5 u/mL). Cells were washed twice in stimulation buffer (HBSS+25 mM HEPES pH 7.4) and incubated with 10 μM of compound in stimulation buffer (HBSS+25 mM HEPES pH 7.4) for 15 minutes in a 96-well plate (10^6/well) at 37° C. Cell supernatant was analyzed for histamine using histamine EIA kit (Cayman #589651).

[2] = test system: plasma PTH; experiment: In vivo PTH lowering after IV bolus in isoflurane-anesthetized normal Sprague Dawley rats; parameters: species or system rat; conditions: for % PTH reduction of baseline at 1 hour post IV administration of 0.5 mg/kg compound: isoflurane-anesthetized normal rats, 0.5 mg/kg IV; for 0.5 mg/kg IV bolus % PTH AUC of saline control: normal rats, AUC 1-4 h
Experimental: The peptides were administered intravenously at a dose of 0.5 mg/kg into isoflurane-anesthetized normal Sprague Dawley rats. A control group of rats was treated with saline. Blood was drawn prior to dosing and every hour for 4 hours. Rats were maintained under isoflurane anesthesia for the entire study. […] Percent PTH reduction was calculated according to the following formula: AUCcmpd treated/AUCsaline control*100.
An intravenous (IV) bolus of saline was used as a control. Plasma (K2EDTA) PTH levels were assessed prior to dosing and 1, 2, 3 and 4 hours after dosing. Rats were maintained under isoflurane anesthesia for the entire study. […] In FIG. 2B, PTH is shown as percent of the baseline pre-dose value.
A series of compounds having an L-amino acid residue substituted for a D-amino acid residue were prepared. The compounds were administered as an IV bolus to normal Sprague Dawley rats at a dose of 0.5 mg/kg. An intravenous (IV) bolus of saline was used as a control. […] Rats were maintained under isoflurane anesthesia for the entire study.

Row | Structure (SMILES) | Histamine in vitro Fold change of non-treated at 10 uM [1] | % PTH reduction of baseline at 1 hour post IV administration of 0.5 mg/kg compound ([2]; Table 2) | 0.5 mg/kg IV bolus % PTH AUC of saline control ([2]; Table 2) | 0.5 mg/kg IV bolus % PTH AUC of saline control ([2]; Table 6) | 0.5 mg/kg IV bolus % PTH AUC of saline control ([2]; Table 7) | Histamine in vitro Fold change of non-treated at 10 uM ([1]; Table 9, 10 μM, 15 minutes, 37° C.)
1 | CC(=O)N[C@H](CS)C(=O)N[C@H](CCCNC(=N)N)C(=O)N[C@H](CCCNC(=N)N)C(=O)N[C@H](CCCNC(=N)N)C(=O)N[C@H](C)C(=O)N[C@H](C)C(=O)N[C@H](CCCNC(=N)N)C(N)=O [SEQ ID NO: 21, Ac-crrraar-NH2] (Ac-[dC][dR][dR][dR][dA][dA][dR]-NH2) | 1.0 fold | 36% | 50% | – | – | –
2 | CC(=O)N[C@H](CS)C(=O)N[C@H](C)C(=O)N[C@H](C)C(=O)N[C@H](CCCNC(=N)N)C(=O)N[C@H](CCCNC(=N)N)C(=O)N[C@H](CCCNC(=N)N)C(=O)N[C@H](CCCNC(=N)N)C(N)=O [SEQ ID NO: 22, Ac-caarrrr-NH2] (Ac-[dC][dA][dA][dR][dR][dR][dR]-NH2) | 1.2 fold | 24% | 48% | – | – | –
3 | CC[C@@H](C)[C@@H](NC(=O)[C@@H](CCCNC(=N)N)NC(=O)[C@@H](CCCNC(=N)N)NC(=O)[C@@H](CS)NC(C)=O)C(=O)N[C@H](CCCNC(=N)N)C(=O)N[C@H](C)C(=O)N[C@H](CCCNC(=N)N)C(N)=O [SEQ ID NO: 115, Ac-crrirar-NH2] (Ac-[dC][dR][dR][dI][dR][dA][dR]-NH2) | 3.4 fold | – | – | 0% | – | –
4 | CC(=O)N[C@H](CS)C(=O)N[C@H](CCCNC(=N)N)C(=O)N[C@H](CCCNC(=N)N)C(=O)N[C@H](CCC(N)=O)C(=O)N[C@H](CCCNC(=N)N)C(=O)N[C@H](C)C(=O)N[C@H](CCCNC(=N)N)C(N)=O [SEQ ID NO: 112, Ac-crrqrar-NH2] (Ac-[dC][dR][dR][dQ][dR][dA][dR]-NH2) | 1.2 fold | – | – | 4% | – | –
5 | CCCC[C@@H](NC(=O)[C@@H](CCCNC(=N)N)NC(=O)[C@@H](C)NC(=O)[C@@H](CCCNC(=N)N)NC(=O)[C@@H](CCCNC(=N)N)NC(=O)[C@@H](CS)NC(C)=O)C(=O)N[C@H](CCCNC(=N)N)C(N)=O [SEQ ID NO: 133, Ac-crrar-dNle-r-NH2] (Ac-[dC][dR][dR][dA][dR][dNle][dR]-NH2) | 4.3 fold | – | – | – | 26% | –
6 | CC(=O)N[C@H](CS)C(=O)N[C@H](CCC(N)=O)C(=O)N[C@H](CCCNC(=N)N)C(=O)N[C@H](CCCNC(=N)N)C(=O)N[C@H](CCCNC(=N)N)C(=O)N[C@H](C)C(=O)N[C@H](CCCNC(=N)N)C(N)=O [SEQ ID NO: 99, Ac-cqrrrar-NH2] (Ac-[dC][dQ][dR][dR][dR][dA][dR]-NH2) | 1.9 fold | – | – | 24% | – | –
7 | CC(=O)N[C@H](CS)C(=O)N[C@H](CCCNC(=N)N)C(=O)N[C@H](CCCNC(=N)N)C(=O)N[C@H](Cc1ccccc1)C(=O)N[C@H](CCCNC(=N)N)C(=O)N[C@H](C)C(=O)N[C@H](CCCNC(=N)N)C(N)=O [SEQ ID NO: 110, Ac-crrfrar-NH2] (Ac-[dC][dR][dR][dF][dR][dA][dR]-NH2) | 6.2 fold | – | – | 6% | – | –
8 | CC(=O)N[C@H](CS)C(=O)N[C@H](CCCNC(=N)N)C(=O)N[C@H](CCCNC(=N)N)C(=O)N[C@H](CCC(=O)O)C(=O)N[C@H](CCCNC(=N)N)C(=O)N[C@H](C)C(=O)N[C@H](CCCNC(=N)N)C(N)=O [SEQ ID NO: 107, Ac-crrerar-NH2] (Ac-[dC][dR][dR][dE][dR][dA][dR]-NH2) | – | – | – | 56% | – | 0.6 fold
9 | CC(=O)N[C@H](CS)C(=O)N[C@H](CCCNC(=N)N)C(=O)N[C@H](CCCNC(=N)N)C(=O)N[C@@H](C(=O)N[C@H](CCCNC(=N)N)C(=O)N[C@H](C)C(=O)N[C@H](CCCNC(=N)N)C(N)=O)C(C)C [SEQ ID NO: 113, Ac-crrvrar-NH2] (Ac-[dC][dR][dR][dV][dR][dA][dR]-NH2) | 1.9 fold | – | – | 3% | – | –

Second part, led by results:

Row | Histamine in vitro Fold change of non-treated at 10 uM [1] | Structure (SMILES) | % PTH reduction of baseline at 1 hour post IV administration of 0.5 mg/kg compound ([2]; Table 2) | 0.5 mg/kg IV bolus % PTH AUC of saline control ([2]; Table 2) | 0.5 mg/kg IV bolus % PTH AUC of saline control ([2]; Table 6) | 0.5 mg/kg IV bolus % PTH AUC of saline control ([2]; Table 7) | Histamine in vitro Fold change of non-treated at 10 uM ([1]; Table 9, 10 μM, 15 minutes, 37° C.)
10 | 0.9 fold | CC(=O)N[C@H](CS)C(=O)N[C@H](CO)C(=O)N[C@H](CCCNC(=N)N)C(=O)N[C@H](CCCNC(=N)N)C(=O)N[C@H](CCCNC(=N)N)C(=O)N[C@H](C)C(=O)N[C@H](CCCNC(=N)N)C(N)=O [SEQ ID NO: 102, Ac-csrrrar-NH2] (Ac-[dC][dS][dR][dR][dR][dA][dR]-NH2) | – | – | 13% | – | –
11 | 3.0 fold | CC[C@@H](C)[C@@H](NC(=O)[C@@H](CS)NC(C)=O)C(=O)N[C@H](CCCNC(=N)N)C(=O)N[C@H](CCCNC(=N)N)C(=O)N[C@H](CCCNC(=N)N)C(=O)N[C@H](C)C(=O)N[C@H](CCCNC(=N)N)C(N)=O [SEQ ID NO: 96, Ac-cirrrar-NH2] (Ac-[dC][dI][dR][dR][dR][dA][dR]-NH2) | – | – | 33% | – | –
12 | 4.0 fold | CC(=O)N[C@H](CS)C(=O)N[C@H](C)C(=O)N[C@H](CCCNC(=N)N)C(=O)N[C@H](CCCNC(=N)N)C(=O)N[C@H](CCCNC(=N)N)C(=O)N[C@H](Cc1ccccc1)C(=O)N[C@H](CCCNC(=N)N)C(N)=O [SEQ ID NO: 83, Ac-carrrfr-NH2] (Ac-[dC][dA][dR][dR][dR][dF][dR]-NH2) | – | – | 177% | – | –
13 | 1.7 fold | CC(=O)N[C@H](CS)C(=O)N[C@H](C)C(=O)N[C@H](CCCNC(=N)N)C(=O)N[C@H](CCCNC(=N)N)C(=O)N[C@H](CCCNC(=N)N)C(=O)N[C@@H](C(=O)N[C@H](CCCNC(=N)N)C(N)=O)[C@H](C)O [SEQ ID NO: 91, Ac-carrrtr-NH2] (Ac-[dC][dA][dR][dR][dR][dT][dR]-NH2) | – | – | 18% | – | –
14 | 1.4 fold | CC(=O)N[C@H](CS)C(=O)N[C@H](CCCNC(=N)N)C(=O)N[C@H](C)C(=O)N[C@H](CCCNC(=N)N)C(=O)N[C@H](C)C(=O)N[C@H](CCCNC(=N)N)C(=O)N[C@H](CCCNC(=N)N)C(N)=O [SEQ ID NO: 18, Ac-crararr-NH2] (Ac-[dC][dR][dA][dR][dA][dR][dR]-NH2) | 72% | 87% | – | – | –
15 | 1.6 fold | CC(=O)N[C@H](CS)C(=O)N[C@H](Cc1c[nH]cn1)C(=O)N[C@H](CCCNC(=N)N)C(=O)N[C@H](CCCNC(=N)N)C(=O)N[C@H](CCCNC(=N)N)C(=O)N[C@H](C)C(=O)N[C@H](CCCNC(=N)N)C(N)=O [SEQ ID NO: 103, Ac-chrrrar-NH2] (Ac-[dC][dH][dR][dR][dR][dA][dR]-NH2) | – | – | 1% | – | –
16 | 1.3 fold | CC(=O)N[C@H](CS)C(=O)N[C@H](CCCNC(=N)N)C(=O)N[C@H](CCCNC(=N)N)C(=O)N[C@H](C)C(=O)N[C@H](C)C(=O)N[C@H](CCCNC(=N)N)C(=O)N[C@H](CCCNC(=N)N)C(N)=O [SEQ ID NO: 17, Ac-crraarr-NH2] (Ac-[dC][dR][dR][dA][dA][dR][dR]-NH2) | 39% | 102% | – | – | –
17 | 6.8 fold | CC(=O)N[C@H](CS)C(=O)N[C@H](Cc1ccccc1)C(=O)N[C@H](CCCNC(=N)N)C(=O)N[C@H](CCCNC(=N)N)C(=O)N[C@H](CCCNC(=N)N)C(=O)N[C@H](C)C(=O)N[C@H](CCCNC(=N)N)C(N)=O [SEQ ID NO: 104, Ac-cfrrrar-NH2] (Ac-[dC][dF][dR][dR][dR][dA][dR]-NH2) | – | – | 0% | – | –
18 | 1.2 fold | CC(=O)N[C@H](CS)C(=O)N[C@H](C)C(=O)N[C@H](CCCNC(=N)N)C(=O)N[C@H](CCCNC(=N)N)C(=O)N[C@H](CCCNC(=N)N)C(=O)N[C@@H](C(=O)N[C@H](CCCNC(=N)N)C(N)=O)C(C)C [SEQ ID NO: 87, Ac-carrrvr-NH2] (Ac-[dC][dA][dR][dR][dR][dV][dR]-NH2) | – | – | 79% | – | –
